Measured values taken from the supplement of paper PMC11451515.

Tested on: NOMO1
Test: cell viability relative to DMSO control; higher = less cytotoxic
Conditions: 48 h
In short: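 Before seeding, each leukemia line was adapted for at least four passages in each medium. NOMO1 or SEM cells (500 cells/well) and P12-Ichikawa cells (1000 cells/well) went into 1536-well plates at 5 μl, then received library compounds in DMSO by pin dosing across 11 threefold concentrations, 47 μM to 0.79 nM. Readout was CellTiter-Glo One luminescence after 48 h at 37°C, and viability is given as a per-plate percentage of DMSO wells, with cell-free wells as background.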

[1] = HPLM + 10% dialyzed FBS, 0.000781 µM
[2] = HPLM + 10% dialyzed FBS, 0.00234 µM
[3] = HPLM + 10% dialyzed FBS, 0.00702 µM
[4] = HPLM + 10% dialyzed FBS, 0.0211 µM
[5] = HPLM + 10% dialyzed FBS, 0.0632 µM
[6] = HPLM + 10% dialyzed FBS, 0.19 µM
[7] = HPLM + 10% dialyzed FBS, 0.569 µM
[8] = HPLM + 10% dialyzed FBS, 1.71 µM
[9] = HPLM + 10% dialyzed FBS, 5.12 µM
[10] = HPLM + 10% dialyzed FBS, 15.4 µM
[11] = HPLM + 10% dialyzed FBS, 46.1 µM
[12] = RPMI 5 mM glucose + 10% FBS, 0.000781 µM
[13] = RPMI 5 mM glucose + 10% FBS, 0.00234 µM
[14] = RPMI 5 mM glucose + 10% FBS, 0.00702 µM
[15] = RPMI 5 mM glucose + 10% FBS, 0.0211 µM
[16] = RPMI 5 mM glucose + 10% FBS, 0.0632 µM
[17] = RPMI 5 mM glucose + 10% FBS, 0.19 µM
[18] = RPMI 5 mM glucose + 10% FBS, 0.569 µM
[19] = RPMI 5 mM glucose + 10% FBS, 1.71 µM
[20] = RPMI 5 mM glucose + 10% FBS, 5.12 µM
[21] = RPMI 5 mM glucose + 10% FBS, 15.4 µM
[22] = RPMI 5 mM glucose + 10% FBS, 46.1 µM
[23] = RPMI 5 mM glucose + 10% dialyzed FBS, 0.000781 µM
[24] = RPMI 5 mM glucose + 10% dialyzed FBS, 0.00234 µM
[25] = RPMI 5 mM glucose + 10% dialyzed FBS, 0.00702 µM
[26] = RPMI 5 mM glucose + 10% dialyzed FBS, 0.0211 µM
[27] = RPMI 5 mM glucose + 10% dialyzed FBS, 0.0632 µM
[28] = RPMI 5 mM glucose + 10% dialyzed FBS, 0.19 µM
[29] = RPMI 5 mM glucose + 10% dialyzed FBS, 0.569 µM
[30] = RPMI 5 mM glucose + 10% dialyzed FBS, 1.71 µM
[31] = RPMI 5 mM glucose + 10% dialyzed FBS, 5.12 µM
[32] = RPMI 5 mM glucose + 10% dialyzed FBS, 15.4 µM
[33] = RPMI 5 mM glucose + 10% dialyzed FBS, 46.1 µM

Compound | cell viability [1] [%] | cell viability [2] [%] | cell viability [3] [%] | cell viability [4] [%] | cell viability [5] [%] | cell viability [6] [%] | cell viability [7] [%] | cell viability [8] [%] | cell viability [9] [%] | cell viability [10] [%] | cell viability [11] [%] | cell viability [12] [%] | cell viability [13] [%] | cell viability [14] [%] | cell viability [15] [%] | cell viability [16] [%] | cell viability [17] [%] | cell viability [18] [%] | cell viability [19] [%] | cell viability [20] [%] | cell viability [21] [%] | cell viability [22] [%] | cell viability [23] [%] | cell viability [24] [%] | cell viability [25] [%] | cell viability [26] [%] | cell viability [27] [%] | cell viability [28] [%] | cell viability [29] [%] | cell viability [30] [%] | cell viability [31] [%] | cell viability [32] [%] | cell viability [33] [%]
CC[C@H]1OC(=O)[C@H](C)[C@@H](O[C@H]2C[C@@](C)(OC)[C@@H](O)[C@H](C)O2)[C@H](C)[C@@H](O[C@@H]2O[C@@H](C)C[C@H](N(C)C)[C@H]2O)[C@](C)(O)C[C@@H](C)C(=O)[C@H](C)[C@@H](O)[C@]1(C)O | 86.3 | 80.4 | 97.4 | 93 | 105 | 105 | 108 | 87 | 80.9 | 63.4 | 56.7 | 77.5 | 81 | 79.8 | 94.9 | 91.8 | 92.1 | 88.8 | 84.9 | 81 | 88.8 | 55 | 77.8 | 90.3 | 91 | 91.6 | 102 | 86.8 | 93.3 | 101 | 90.3 | 95.3 | 51.8
NC(=O)c1ccc(-c2nc(-c3ccc4c(c3)OCCO4)c(-c3ccccn3)[nH]2)cc1 |  |  |  |  |  |  |  |  |  |  |  | 105 | 104 | 104 | 106 | 118 | 119 | 121 | 114 | 122 | 107 | 114 | 121 | 119 | 119 | 118 | 134 | 113 | 131 | 125 | 114 | 116 | 119
COC[C@H](NC(=O)c1cnc(C)s1)C(=O)N[C@@H](COC)C(=O)N[C@@H](Cc1ccccc1)C(=O)[C@@]1(C)CO1 | 105 | 106 | 111 | 107 | 97.2 | 83.5 | 23.5 | 6.64 | 1.03 | 0.172 | 1.92 | 98.6 | 108 | 92.9 | 94.3 | 93.6 | 98.1 | 28.1 | 6.29 | 1.06 | 0.581 | 1.29 | 98.8 | 98.1 | 97.6 | 96.7 | 98.3 | 88.1 | 30.2 | 5.68 | 2.49 | 0.98 | 1.62
CCNC(=O)C[C@@H]1\N=C(C2=CC=C(Cl)C=C2)/C3=C(C=CC(=C3)OC)[N]4C(=NN=C14)C | 121 | 130 | 123 | 121 | 114 | 120 | 107 | 84.8 | 68.5 | 29 | 15 | 108 | 118 | 103 | 114 | 121 | 105 | 104 | 90.2 | 76.1 | 26.7 | 6.87 | 106 | 116 | 117 | 109 | 114 | 112 | 98 | 89.7 | 72.4 | 28.4 | 9.69
O=C1\C=C(/OC2=C1C=CC=C2C3=CC=CC=C3)N4CCOCC4 | 95.4 | 99.2 | 99.9 | 90.4 | 91.9 | 90.4 | 86.7 | 63.9 | 82.5 | 66.5 | 75.6 | 82.4 | 88 | 89.1 | 84.7 | 79.9 | 83 | 81.7 | 77 | 82.4 | 80.9 | 76 | 75.2 | 86.5 | 81.7 | 83.9 | 87.4 | 79.7 | 82.3 | 66.1 | 89.8 | 79.1 | 88.1
C[C@@H]1C[C@H]2[C@@H]3\C=C(C)/C4=C/C5=C(C[C@]4(C)[C@H]3[C@@H](O)C[C@]2(C)[C@@]1(O)C(=O)COC(C)=O)C=N[N]5C6=CC=CC=C6 | 116 | 123 | 114 | 113 | 123 | 106 | 106 | 106 | 104 | 108 | 90 |  |  |  |  |  |  |  |  |  |  |  | 127 | 121 | 110 | 122 | 125 | 114 | 109 | 108 | 104 | 109 | 100
CC(C)(C)OC(=O)CN(Cc1ccc(Cl)cc1)Cc1ccc([N+](=O)[O-])s1 | 109 | 95.6 | 107 | 96.8 | 101 | 99.6 | 91.1 | 87.5 | 92.7 | 75.3 | 40.7 | 88.9 | 98.6 | 95.4 | 87 | 93.5 | 105 | 96.3 | 92.9 | 89.7 | 81.3 | 66.5 | 107 | 97.7 | 95.7 | 96.6 | 107 | 94 | 103 | 102 | 95.5 | 87 | 80.1
Cl.c1cnc2cc3c(cc2n1)C1CNCC3C1 | 107 | 109 | 110 | 103 | 129 | 126 | 135 | 124 | 124 | 122 | 92 | 101 | 105 | 113 | 107 | 112 | 110 | 118 | 104 | 111 | 110 | 79.4 | 99.3 | 98.2 | 105 | 114 | 107 | 121 | 116 | 109 | 103 | 108 | 62.8
CCOC(=O)Nc1ccc(NCc2ccc(F)cc2)cc1N | 112 | 120 | 126 | 129 | 116 | 110 | 121 | 107 | 99.1 | 65.1 | 31.5 | 107 | 112 | 117 | 116 | 117 | 118 | 112 | 113 | 105 | 94.3 | 24.6 | 115 | 133 | 119 | 119 | 115 | 123 | 110 | 107 | 107 | 89.8 | 33.9
O=C1c2c(O)cccc2[C@H]([C@@H]2O[C@H](CO)[C@@H](O)[C@H](O)[C@H]2O)c2cc(CO)cc(O)c21 | 87 | 101 | 97.9 | 77 | 110 | 122 | 102 | 102 | 111 | 93.4 | 97.5 | 87.8 | 91.8 | 81 | 80.8 | 94.5 | 79.8 | 80.3 | 83.1 | 83.1 | 85.8 | 84.6 | 84.7 | 80.2 | 106 | 88.3 | 87.6 | 96.6 | 96.3 | 86.6 | 89 | 83.1 | 94.6
CO/N=C(/C(=O)N[C@@H]1C(=O)N2C(C(=O)O)=C(Cn3ccc(=N)n3CCO)CS[C@H]12)c1csc(N)n1 | 104 | 115 | 131 | 136 | 130 | 116 | 120 | 130 | 137 | 133 | 166 |  |  |  |  |  |  |  |  |  |  |  | 112 | 117 | 129 | 133 | 138 | 140 | 130 | 123 | 153 | 138 | 134
CN1C(=O)\C(=C/C(=C1/NC2=C(F)C=C(I)C=C2)C(=O)NOCCO)C | 89.8 | 89.6 | 77.9 | 64.2 | 46.3 | 45.8 | 40.2 | 41.6 | 32.9 | 39.8 | 36.1 | 86 | 93.8 | 75.3 | 72 | 50.2 | 52.2 | 49.4 | 46.7 | 43.4 | 41.4 | 46.5 | 75 | 81.7 | 78.5 | 62.9 | 45.9 | 40.8 | 40 | 40.4 | 37.6 | 43.1 | 43.3
Cc1cc(O)c2c3c4c(cc(O)c13)C(C)(C)C(=O)c1c(O)cc(O)c(c1-4)C2=O | 125 | 121 | 107 | 115 | 109 | 112 | 115 | 99.2 | 114 | 101 | 7.32 | 106 | 109 | 109 | 101 | 88.6 | 101 | 90.5 | 104 | 101 | 85.2 | 26.1 | 89.5 | 95.2 | 118 | 98.9 | 109 | 86.5 | 107 | 107 | 112 | 114 | 36.5
COC(=O)N1CCN(Cc2cccc(NC(=O)Nc3ccc(C)nc3)c2F)CC1 | 115 | 111 | 111 | 104 | 104 | 100 | 100 | 101 | 102 | 82.4 | 81.9 | 98.5 | 98.8 | 95.2 | 98.8 | 95.7 | 85.7 | 103 | 84.2 | 84.1 | 77.2 | 77.6 | 91.9 | 92.4 | 105 | 104 | 99.6 | 93.5 | 85.6 | 84 | 78.1 | 83.7 | 81.5
NC(=O)N1c2ccccc2CC(=O)c2ccccc21 | 115 | 124 | 121 | 126 | 123 | 136 | 128 | 137 | 126 | 143 | 163 |  |  |  |  |  |  |  |  |  |  |  |  |  |  |  |  |  |  |  |  |  | 
ClC1=CC=C(CCCOC/2=N/NC(=O)C(=C2NCC3=CN=CC=C3)/Br)C=C1 | 124 | 117 | 150 | 115 | 115 | 118 | 97.9 | 75.4 | 38.8 | 15.9 | 7.76 |  |  |  |  |  |  |  |  |  |  |  | 121 | 120 | 127 | 112 | 111 | 109 | 106 | 106 | 66.2 | 27.8 | 12.9
